Entries after “also recorded” stand apart in the source; their conditions may differ. Where two headings read alike, the source gives them in different places.
Assays:
[1] = system: TF1-α cells; test: TF1-α disseminated MDR-positive AML model in SCID mice; assay type: in vivo
Description: The MDR-negative HL60 cell line and the MDR-positive HEL9217 and TF1-α cell lines were used. […] Disease symptoms typically developed between about 35 and about 80 days, and included hind limb paralysis, scruffy coat, weight loss, palpable tumors, and/or tumor masses in bone, peritoneal cavity, or soft tissues. Human CD33+ tumor cells were detected in the blood, bone marrow, and lymph nodes of the majority of the mice by flow cytometry (FIG. 25). Solid tumors associated with bone or soft tissues were found in 20 to 60% of the mice.

[2] = system: AML tumor cell lines; test: IL-8 / MCP-1 production by AML tumor cell lines after TNF-α (ELISA); assay type: cell-based, human; details: 10 μg/ml SGN-33 before 1 ng/ml TNF-α; 18 h; p<0.05, p<0.01 (FIG. 27C)
Method: (§1) Target AML tumor cells (KG-1 HEL9217, and TF1α) were labeled with Na^51CrO4 and mixed with enriched CD16^+ effector (NK) cells, prepared using PBMCs from normal donors. The effector to target cell ratio was 10:1. […] Macrophages were labeled with CD11b−FITC or CD14-FITC antibody. Flow cytometric analyses of dual labeled (PKH67+CD11b+ or PKH67+CD14+) cells was used to determine specific uptake (phagocytosis). […] Media were collected 18 h later and analyzed by ELISA for IL-8 or MCP-1.

[3] = system: advanced myeloid malignancies; test: Phase I single-arm dose escalation trial; assay type: in vivo, human
Method: Entry criteria included CD33 expression on >50% of the marrow blasts to ensure that adequate target antigen was present. […] Clinical response was assessed by bone marrow morphology and hematologic improvement. […] Among AML patients, 6 had antecedent hematologic disorder. Dosing cohorts included 1.5 (6), 2.5 (4), 4 (4), and 8 mg/kg (17).

[4] = system: primary human CD14+ monocytes; test: Cell viability (CelltiterGlo) of primary human CD14+ monocytes; assay type: cell-based; details: 48 hours of exposure to increasing concentrations (FIG. 13)
Method: Macrophages were harvested, counted, and cultured in 96-well plates at 35,000 cells per well. G-CSF-mobilized CD14^+ monocytes (Cambrex) were cultured in 96-well plates at 100,000 cells per well (adherent cells) in sterile polypropylene dishes (non-adherent cells).

[5] = system: human CD14+ monocytes; test: Cytokine, chemokine and growth factor production by human CD14+ monocytes; assay type: cell-based
Method: (§2) Tissue culture media was harvested 18 h later for cytokine analyses by ELISA or Searchlight (Pierce Endogen, Rockville, Ill.).

[6] = system: primary human macrophages; test: Cytokine, chemokine and growth factor production by primary human macrophages; assay type: cell-based
Method: Primary human macrophages were generated from long-term cultures of freshly isolated human peripheral blood mononuclear cells (PBMCs; AllCells, Emeryville, Calif. or LifeBlood, Memphis, Tenn.). PBMCs were cultured in tissue culture flasks in RPMI 1640 medium containing glutamine (Invitrogen, Grand Island, N.Y.), 10% heat-inactivated FBS, and antibiotics for 3 to 4 hours. Non-adherent cells were removed by washing with PBS and the adherent cells were cultured in OptiMem-I medium (Invitrogen) containing 1% heat-inactivated FBS for 1 to 2 hours. The cells were washed with PBS and cultured for 10 to 14 days in X-VIVO-15 medium (Cambrex Bio Science, Walkersville, Md.) containing 500 U/ml GM-CSF (Peprotech, Rocky Hill, N.J.).
as §2

[7] = molecular target: T1, CD33 (Homo sapiens, UniProt P20138); test: Recruitment of SHP-1 / SHP-2 / Syk to CD33 (CD33 immunoprecipitation, Western blot); assay type: cell-based; set-up: endogenous in cells; host or cells: HL-60, U937; primary human CD14+ monocytes and PBMC-derived macrophages
T1 sequence (P20138 18-364): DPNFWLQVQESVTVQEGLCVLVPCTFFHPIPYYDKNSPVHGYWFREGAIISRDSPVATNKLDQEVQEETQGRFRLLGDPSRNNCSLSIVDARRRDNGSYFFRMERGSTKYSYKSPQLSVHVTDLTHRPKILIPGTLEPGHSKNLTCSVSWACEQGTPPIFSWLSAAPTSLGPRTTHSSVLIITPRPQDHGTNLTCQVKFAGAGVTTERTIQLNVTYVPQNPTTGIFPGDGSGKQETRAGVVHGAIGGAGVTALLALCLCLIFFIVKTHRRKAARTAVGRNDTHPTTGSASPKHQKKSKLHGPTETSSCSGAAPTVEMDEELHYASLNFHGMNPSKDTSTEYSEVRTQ
Method: To determine whether the humanized M195 antibody also recruits SHP phosphatases, HL-60 cells were treated with soluble or cross-linked anti-CD33 antibodies. Cell extracts were prepared and CD33 was immunoprecipitated with an anti-CD33 antibody (MY9 clone). Western blotting was performed with an anti-SHP-1 antibody (sc-287; Santa Cruz Biotechnology, Inc., Santa Cruz, Calif.).
To prepare deglycosylated SGN-33, the antibody was treated with PN-glycosidase F (New England BioLabs, Ipswich, Mass.). Deglycosylation was confirmed by CE-SDS. […] Cell lysates were prepared and CD33 immunoprecipitated using an anti-CD33 rabbit polyclonal antibody (Santa Cruz Biotechnology, Santa Cruz, Calif.) prior to SDS PAGE gel electrophoresis. Western blot analyses of these samples were performed using the 4G10 phosphotyrosine antibody (Upstate Biotechnology, Temucula, Calif.), anti-CD33 antibody (NovoCastra, Norwell, Mass.), and anti-SHP-1 antibody (Calbiochem, San Diego, Calif.). Control lysate for SHP-1 was prepared from a B cell lymphoma cell line.

[8] = system: AML tumor cells; test: ADCP, phagocytosis by monocyte-derived macrophages (flow cytometry); assay type: cell-based, human; details: MDR-positive and MDR-negative AML cells (FIG. 27B)
Method: as §1

[9] = molecular target: T1, CD33; test: Apparent Kd by saturation binding using flow cytometry; set-up: endogenous in cells; host or cells: HL60, KG-1, HEL9217, TF1-α
Method: As a preliminary step, the AML cell lines HL60, KG-1, HEL9217 and TF1-α were assessed for multi-drug resistance (MDR) status and CD33 copy number. MDR status was determined by flow cytometry assessment of Rhodamine (Rh123) efflux at 37° C. […] CD33 copy number was determined by qFACs (DAKO QifiKit) and apparent Kd values by saturation binding measurements using flow cytometry.

## SGN-33: anti-CD33 antibody, a humanized version of mouse monoclonal antibody M195
[1]; MDR-positive TF1-α model, 4 doses at 10 or 30 mg/kg, p<0.025
  increase of survival: greater than 40 days
[1]; TF1-α model, SCID mice, q4dx4, p<0.005 (FIG. 26)
  survival: > 100 days
[2]
  production of cytokines (IL-8 or MCP-1): reduced cytokine production; also recorded: significantly reduced the production of cytokines
[3]; 31 patients
  Grade 4 adverse events considered related to antibody: none
[3]; among 18 patients with AML
  patients achieving CR: 4
  patients achieving CR with incomplete platelet recovery: 1
[3]; repeat dosing
  accumulation: documented with repeat dosing
[3]; weekly iv 1.5 to 8 mg/kg for 5 weeks, 31 patients
  dose limiting toxicity: has not been observed
[4]
  cell viability of monocytes: not due to an adverse effect; also recorded: does not affect the viability
[5]; adherent CD14+ monocytes, 48 h (FIG. 10)
  basal and IFN-γ stimulated levels of IL-6, MCP-1, TNF-α, IL-8; IFN-γ stimulated level of RANTES: reduced the basal levels and IFN-γ stimulated levels
[5]; adherent CD14+ monocytes, RPMI-8228 conditioned media (FIG. 11)
  basal and conditioned media stimulated levels of IL-6, MCP-1, IL-8; conditioned media stimulated level of RANTES: reduced the basal levels and the RPMI-8228 conditioned media stimulated levels
[5]; adherent CD14+ monocytes, basal and RPMI-8228 conditioned media stimulated (FIG. 11)
  level of TNF-α: reduced the basal level, but not the RPMI-8228 conditioned media stimulated level
[5]; non-adherent CD14+ monocytes exposed to SGN-33 (FIG. 12)
  levels of IL-6, IL-8, TNF-α and MCP-1: small increases
[5]; non-adherent CD14+ monocytes, IFN-γ (FIG. 12)
  production of cytokines, chemokines and growth factors: not inhibited by SGN-33, except for the basal level of RANTES
[5]; primary human monocytes treated 1 hr before IFN-γ, 18 h, p<0.001 (FIG. 19)
  IFN-γ-stimulated production of IL-1β, IL-10, IL-12 and MIP-1α: significantly reduced
[5]; primary human monocytes, various doses 1 hr before IFN-γ, 18 h, p<0.05 (FIG. 20)
  levels of TNF-α: significantly reduced levels of TNF-α in a dose-dependent manner
[6]; macrophages pre-incubated 3 hours with SGN-33, response to IFN-γ or conditioned media from RPMI-8226 and Karpus-620 cells, 24 h
  production of IL-6, TNF-α, RANTES and MCP-1: reduced production of IL-6, TNF-α, RANTES, and MCP-1
[6]; primary human macrophages, various doses 1 hr before IFN-γ, 18 h, p<0.05 (FIG. 20)
  levels of TNF-α: significantly reduced levels of TNF-α in a dose-dependent manner
[7]; HL-60 and monocytes, 30 minutes (FIG. 16)
  recruitment of SHP-1 to the CD33 complex: resulted in recruitment of SHP-1 to the CD33 complex
[7]; HL-60 cells, data not shown
  recruitment of SHP-2 or Syk: did not recruit SHP-2 or Syk
[8]
  ADCP activity (phagocytosis): antibody-dependent cell phagocytosis of MDR-positive and MDR-negative AML cells; also recorded: mediate phagocytosis of AML tumor cells
[9]; read-out: Kd (pM) for SGN-33, HEL9217 cells (MDR positive)
  Kd: 144 ± 12 pM
[9]; read-out: Kd (pM) for SGN-33, HL60 cells (MDR negative)
  Kd: 123 ± 16 pM
[9]; read-out: Kd (pM) for SGN-33, KG-1 cells (MDR negative)
  Kd: 70 ± 20 pM
[9]; read-out: Kd (pM) for SGN-33, TF1-α cells (MDR positive)
  Kd: 99 ± 22 pM

— patent US20100215653A1, “METHODS OF TREATING NEOPLASTIC, AUTOIMMUNE AND INFLAMMATORY DISEASES” (Seattle Genetics, Inc., priority 2006, published 2010)
